Several values for one entry are separate records, joined by “and”; a condition that tells them apart may be missing. Identical values can stand only once.
Tests used:
Assay type in all cases: physicochemical
[1] = Peroxide Value (PV), primary oxidation products, Ph. Eur. 2.5.5; stability on storage
Procedure: An exemplary procedure for determining the Peroxide Value (PV) of a sample is performed as follows:
Reagents and solution: • 1. Acetic Acid—chloroform solution (7.2 ml Acetic Acid and 4.8 ml Chloroform). • 2. Saturated Potassium Iodide solution. Store in the dark. • 3. Sodium thiosulfate solution, 0.1N. Commercially available • 4. 1% Starch solution. Commercially available. • 5. Distilled or deionized water.
Conduct a blank determination of the reagents • 1. Weigh 2.00 (±0.02) g of sample into a 100 ml glass stoppered Erlenmeyer flask. Record weight to the nearest 0.01 g. • 2. By graduated cylinder, odd 12 ml of the acetic acid chloroform solution. • 3. Swirl the flask until the sample is completely dissolved (careful warming on a hot plate may be necessary). • 4. Using 1 ml Mohr pipette, add 0.2 ml of saturated potassium iodide solution • 5. Stopper the flask and swirl the contents of the flask for exactly one minute. • 6. Immediately add by graduated cylinder, 12 ml of either distilled or deionized water, stopper and stake vigorously to liberate the iodine from the chloroform layer. • 7. Fill the burette with 0.1 N sodium thiosulfate. • 8. If the starting color of the solution is deep red orange, titrate slowly with mixing until the color lightens. If the solution is initially a light amber color, go to step 9. • 9. Using a dispensing device: add 1 ml of starch solution as indicator. • 10. Titrate until the blue gray color disappears in the aqueous (upper layer). • 11. Accurately record the mis of titrant used to two decimal places.
Calculation: • S=titration of sample • B=titration of blank • Peroxide value=(S−B)*N thiosulfate*1000/weight of sample
(§1) Primary oxidation products (hydroperoxides at double bonds) were quantified by determining the Peroxide Value (PV) according to Ph. Eur 2.5.5 (01/2008.20505). Secondary oxidation products (carbonyl compounds) were quantified by determining the Anisidine Value (AV) according to Ph, Eur. 2.5.36 (01/2008:20536).
(§2) About 50 g each of the liquid ethyl esters EPA-OEt and DHA-OEt used in experiments 1 and 2 as well as of the liquid fatty acids EPA and DHA obtained in experiments 1 and 2 were filled into 250 ml Schott Duran bottles with an inner diameter of about 60 mm (filling height about 20 mm). About 50 g each of the solid lysine-salts EPA-Lys and DHA-Lys obtained in experiments 3 and 4 were filled into 250 ml polyethylene wide-neck bottles (55 mm*55 mm*80 mm) (filling height about 60 mm-70 mm).
(§3) All of the bottles were placed together with opened lids in a drying oven with an opened ventilation valve at 50° C. and stored under these conditions for 26 days. Results of the analyses performed subsequently as well as the results obtained for the sodium-salts which were stored at room temperature (cf. experiments 5 and 6) are summarized in the following table (Table 1).

[2] = Oligomer content by gel-chromatography (GPC), RI-detector; stability on storage
Procedure: Oligomeric PUFA constituents as well as their derivatives (collectively referred to as oligomer content) were quantified by gel-chromatographic means (GPC, styroldivinylbenzene-phase with tetrahydrofuran containing trifluoroacetic acid used as eluent). A refractive index (RI) detector was used for detection. Due to the fact that specific response factors of the constituents of the samples wore unknown, proportions were calculated based upon fractional proportions of the total area of chromatograms.
as §2, §3

[3] = Anisidine Value (AV), secondary oxidation products, Ph. Eur. 2.5.36; stability on storage
Procedure: An exemplary procedure for determining the Anisidine Value (AV) of a sample is performed as follows
The anisidine value is defined as 100 times the optical density measured in a 1 cm cell of a solution containing 1 g of the substance to be examined in 100 ml of a mixture of solvents and reagents according to the following method carry out the operations as rapidly as possible avoiding exposure to actinic light.
Test solution (a); Dissolve 0.500 g of the substance to be examined in trimethylpentane and dilute to 25.0 ml with the same solvent.
Test solution (b): To 5.0 ml of test solution (a) add 1.0 ml of a 2.5 g/t solution of p-anisidine in glacial acetic acid, shake and store protected from light.
Reference solution: To 5.0 ml of trimethylpentane add 1.0 ml of a 2.5 g/l solution of p-anisidine in glacial acetic acid, shake and store protected from light. Measure the absorbance of test solution (a) at the maximum at 350 nm using trimethylpentane as the compensation liquid. Measure the absorbance of test solution (b) at 350 nm exactly 10 min after its preparation, using the reference solution as the compensation liquid. Calculate the anisidine value (AV) from the expression. AV=(25*(1.2*A1−A2)/m • A1=absorbance of test solution (b) at 350 nm, • A2=absorbance of test solution (a) at 350 nm, • m=mass of the substance to be examined in test solution (a), in grams.
as §1, §2, §3

[4] = Appearance after storage at room temperature; settings: after storage for 3 months at room temperature; initially faintly beige powder
Procedure: The homogenous solution obtained was spray dried with a Büchi B190 laboratory-spray drier with an inlet temperature of 140° C. and an outlet temperature of about 80° C. 28.6 g of a faintly beige powder were obtained.
The homogenous solution obtained was spray dried with a Büchi B190 laboratory-spray drier writ an inlet temperature of 140° C. and an outlet temperature of about 80° C. 27.5 g of a faintly beige powder were obtained. […] Oligomer content was determined as 3.4 area-% (gel-chromatography. RI-detector).

[5] = t = 26 days, open bottles exposed to air, drying oven at 50° C.
[6] = after 3 months at room temperature

Oligomer content ([2]; t = 0, before storage) [area-%] | Molecule | Peroxide Value (PV) ([1]; t = 0, before storage) [mmol/kg] | Peroxide Value (PV) [1, 5] [mmol/kg] | Oligomer content [2, 5] [area-%] | Anisidine Value (AV) ([3]; t = 0, before storage) [A/g] | Anisidine Value (AV) [3, 5] [A/g] | Peroxide Value (PV) [1, 6] | Oligomer content [2, 6] | Appearance after storage [4] | Anisidine Value (AV) [3, 6]
0.4 | CC/C=C\C/C=C\C/C=C\C/C=C\C/C=C\C/C=C\CCC(=O)OCC [DHA-OEt, docosahexaenoic acid ethyl ester] | 26.1 | 282.0 | 32.6 | 16.0 | 1732 |  |  |  | 
 | CC/C=C\C/C=C\C/C=C\C/C=C\C/C=C\CCCC(=O)O [EPA-OH, all-cis-5,8,11,14,17-eicosapentaenoic acid] | 8.6 | 14.7 | 20.6 | 3.1 | 424 |  |  |  | 
 | Docosahexaenoic Acid-L-Lysine Salt [DHA-Lys] | 1.7 | <1.0 | 0.9 | 3.1 | <1.0 |  |  |  | 
 | Docosahexaenoic Acid-Sodium Salt [DHA-Na] |  |  |  |  |  | 6.9 mmol/kg and 6.9 ** mmol/kg | 3.4 area-% and 3.4 ** area-% | grey-coloured appearance | 77.9 A/g and 77.9 ** A/g
 | Eicosapentaenoic Acid-L-Lysine [EPA-Lys] | 1.3 | <1.0 | 0.6 | 2.1 | <1.0 |  |  |  | 
 | Eicosapentaenoic Acid-Sodium Salt [EPA-Na] |  |  |  |  |  | 5.0 mmol/kg and 5.0 ** mmol/kg | 2.4 area-% and 2.4 ** area-% | grey-coloured appearance | 41.1 A/g and 41.1 ** A/g

Reference: US11805798B2, “Process for increasing the stability of a composition comprising polyunsaturated omega-3 fatty acids” (Evonik Operations GmbH, priority 2014, dated 2023)
